For the assay, the system named is T1, Cav2.2 N-type voltage-gated calcium channel.
T1 construct: gene CACNA1B
The assay can be described thus: two-electrode voltage clamp of Cav2.[…] expressed in Xenopus oocytes, dose-response. The format is cell-based.

Turning to `CC(=O)OCC1=CO[C@@H](OC(=O)CC(C)(C)OC(C)=O)[C@H]2C1=C[C@H](OC(=O)CC(C)C)[C@]2(O)COC(=O)CC(C)C` [compound 3, valtrate hydrin B8], the EC50 was found to be 4.8 µM.
On to `CC(=O)OCC1=CO[C@@H](OC(=O)CC(C)C)[C@H]2C1=C[C@H](OC(=O)CC(C)C)[C@]2(O)COC(=O)C(OC(=O)CC(C)C)C(C)C` (stereo partly drawn) [compound 1, (1S, 7S, 8R, 9S)-11-acetoxy-10-[a-(isovaleroxy)isovaleroxy]-1,7-diisovaleroxyvaltrate hydrin], for which the concentration for a half-maximal effect (EC50) came out at 3.3 µM.

These data come from paper PMC6099110, “Valepotriates From the Roots and Rhizomes of Valeriana jatamansi Jones as Novel N-Type Calcium Channel Antagonists” (Frontiers in Pharmacology, 2018).
